Experimental data from patent US11685746B2, “Heteroaryl compounds for treating Huntington's disease” (PTC THERAPEUTICS, INC., priority 2018, dated 2023).

These compounds were tested on Endogenous Huntingtin Protein (assay: Endogenous Huntingtin Protein Assay (MSD plates, MW1 or MAB2166 capture antibody)). Settings: Table 1.
Type: cell-based
In short: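 Endogenous huntingtin was captured overnight at 4° C on wells coated with 1 μg/mL MW1 (polyglutamine-specific) or MAB2166. Detection used rabbit #5656S and then goat anti-rabbit SULFO-TAG, both at 0.25 μg/mL and 1 h at room temperature. Plates were imaged on the MSD system in read buffer T.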

Row | Compound | IC50 [nM]
1 | CN(c1nc2sc(-c3cnc(-c4cn[nH]c4)nc3)nc2s1)C1CC(C)(C)NC(C)(C)C1 [Compound 137, N-methyl-5-[2-(1H-pyrazol-4-yl)pyrimidin-5-yl]-N-(2,2,6,6-tetramethylpiperidin-4-yl)[1,3]thiazolo[5,4-d][1,3]thiazol-2-amine] | ≤ 100
2 | C[C@H]1C[C@H](Oc2nc3sc(-c4ncc(-c5cn[nH]c5)c5cc[nH]c45)nc3s2)CCN1 [Compound 109, 7-(5-{[(2S,4R)-2-methylpiperidin-4-yl]oxy}[1,3]thiazolo[5,4-d][1,3]thiazol-2-yl)-4-(1H-pyrazol-4-yl)-1H-pyrrolo[2,3-c]pyridine] | ≤ 100
3 | CN(c1nc2sc(-n3ccc(-n4cc(F)cn4)cc3=O)nc2s1)[C@@H]1C[C@H]2CC[C@@H](C1)N2 [Compound 149, 1-(5-{[(1R,3s,5S)-8-azabicyclo[3.2.1]octan-3-yl](methyl)amino}[1,3]thiazolo[5,4-d][1,3]thiazol-2-yl)-4-(4-fluoro-1H-pyrazol-1-yl)pyridin-2(1H)-one] | ≤ 100
4 | CN(c1nc2sc(-c3ncc(-c4cn[nH]c4)c4cc[nH]c34)nc2s1)[C@@H]1C[C@H]2CC[C@@H](C1)N2 [Compound 184, N-[(1R,3s,5S)-8-azabicyclo[3.2.1]octan-3-yl]-N-methyl-5-[4-(1H-pyrazol-4-yl)-1H-pyrrolo[2,3-c]pyridin-7-yl][1,3]thiazolo[5,4-d][1,3]thiazol-2-amine] | ≤ 100
5 | C[C@H]1C[C@@H](N(C)c2nc3sc(-c4ncc(-c5cn[nH]c5)c5cc[nH]c45)nc3s2)CCN1 [Compound 98, N-methyl-N-[(2S,4S)-2-methylpiperidin-4-yl]-5-[4-(1H-pyrazol-4-yl)-1H-pyrrolo[2,3-c]pyridin-7-yl][1,3]thiazolo[5,4-d][1,3]thiazol-2-amine] | ≤ 100
6 | C[C@H]1C[C@@H](N(C)c2nc3sc(-c4ncc(-c5cnn(C)c5)c5cc[nH]c45)nc3s2)CCN1 [Compound 95, N-methyl-N-[(2S,4S)-2-methylpiperidin-4-yl]-5-[4-(1-methyl-1H-pyrazol-4-yl)-1H-pyrrolo[2,3-c]pyridin-7-yl][1,3]thiazolo[5,4-d][1,3]thiazol-2-amine] | ≤ 100
7 | Oc1cc(-c2cn[nH]c2)cnc1-c1nc2sc(N3CC4(CCCNC4)C3)nc2s1 [Compound 192, 2-[5-(2,6-diazaspiro[3.5]nonan-2-yl)[1,3]thiazolo[5,4-d][1,3]thiazol-2-yl]-5-(1H-pyrazol-4-yl)pyridin-3-ol] | ≤ 100
8 | CCN1CCC(N(C)c2nc3sc(-c4ncc(-c5cn[nH]c5)cc4O)nc3s2)CC1 [Compound 207, 2-{5-[(1-ethylpiperidin-4-yl)(methyl)amino][1,3]thiazolo[5,4-d][1,3]thiazol-2-yl}-5-(1H-pyrazol-4-yl)pyridin-3-ol] | ≤ 100
9 | CC1(C)CC(Oc2nc3sc(-n4ccc(-c5cn[nH]c5)cc4=O)nc3s2)CC(C)(C)N1 [Compound 156, 4-(1H-pyrazol-4-yl)-1-{5-[(2,2,6,6-tetramethylpiperidin-4-yl)oxy][1,3]thiazolo[5,4-d][1,3]thiazol-2-yl}pyridin-2(1H)-one] | ≤ 100
10 | CN1CCC(N(C)c2nc3sc(-c4ccc(-c5cn[nH]c5)cc4O)nc3s2)CC1 [Compound 24, 2-{5-[methyl(1-methylpiperidin-4-yl)amino][1,3]thiazolo[5,4-d][1,3]thiazol-2-yl}-5-(1H-pyrazol-4-yl)phenol] | ≤ 100
11 | CN(c1nc2sc(-c3cnc(-n4cncn4)cn3)nc2s1)[C@H]1C[C@]2(C)CC[C@](C)(C1)N2 [Compound 70, N-[(1R,3s,5S)-1,5-dimethyl-8-azabicyclo[3.2.1]octan-3-yl]-N-methyl-5-[5-(1H-1,2,4-triazol-1-yl)pyrazin-2-yl][1,3]thiazolo[5,4-d][1,3]thiazol-2-amine] | ≤ 100
12 | Cn1cc2cc(-c3nn4cc(C5CCNCC5)nc4s3)cc(C#N)c2n1 [Compound 27, 2-methyl-5-[6-(piperidin-4-yl)imidazo[2,1-b][1,3,4]thiadiazol-2-yl]-2H-indazole-7-carbonitrile] | ≤ 100
13 | CN(c1nc2sc(-c3cc(F)c(-c4cn[nH]c4)cc3F)nc2s1)C1CCNCC1 [Compound 20, 5-[2,5-difluoro-4-(1H-pyrazol-4-yl)phenyl]-N-methyl-N-(piperidin-4-yl)[1,3]thiazolo[5,4-d][1,3]thiazol-2-amine] | 100 to 500
14 | CN1CCC2(CC1)CN(c1nc3sc(-c4ncc(-c5cn[nH]c5)c5cc[nH]c45)nc3s1)C2 [Compound 138, 7-[5-(7-methyl-2,7-diazaspiro[3.5]nonan-2-yl)[1,3]thiazolo[5,4-d][1,3]thiazol-2-yl]-4-(1H-pyrazol-4-yl)-1H-pyrrolo[2,3-c]pyridine] | ≤ 100
15 | Cc1cn2nc(-c3cn4cc(C5CCNCC5)nc4s3)cc(C)c2n1 [Compound 8, 2,8-dimethyl-6-[6-(piperidin-4-yl)imidazo[2,1-b][1,3]thiazol-2-yl]imidazo[1,2-b]pyridazine] | ≤ 100
16 | Cc1cc(-c2cnc(-c3nc4sc(N(C)C5CCNCC5)nc4s3)c(O)c2)cnn1 [Compound 224, 2-{5-[methyl(piperidin-4-yl)amino][1,3]thiazolo[5,4-d][1,3]thiazol-2-yl}-5-(6-methylpyridazin-4-yl)pyridin-3-ol] | ≤ 100

Row | Compound | IC50 [nM]
17 | CN(c1nc2sc(-n3ccc(-c4cn[nH]c4)cc3=O)nc2s1)C1CC(C)(C)NC(C)(C)C1 [Compound 181, 1-{5-[methyl(2,2,6,6-tetramethylpiperidin-4-yl)amino][1,3]thiazolo[5,4-d][1,3]thiazol-2-yl}-4-(1H-pyrazol-4-yl)pyridin-2(1H)-one] | ≤ 100
18 | CN(c1nc2sc(-c3ncc(-c4cncs4)cc3O)nc2s1)C1CCNCC1 [Compound 64, 5-(thiazol-5-yl)-2-{5-[methyl(piperidin-4-yl)amino][1,3]thiazolo[5,4-d][1,3]thiazol-2-yl}pyridin-3-ol] | 100 to 500
19 | CN(c1nc2sc(-c3ccc(-c4cn[nH]c4)nn3)nc2s1)C1CC(C)(C)NC(C)(C)C1 [Compound 167, N-methyl-5-[6-(1H-pyrazol-4-yl)pyridazin-3-yl]-N-(2,2,6,6-tetramethylpiperidin-4-yl)[1,3]thiazolo[5,4-d][1,3]thiazol-2-amine] | 100 to 500
20 | Fc1cc(-c2nc3sc(N4CC5(CCNCC5)C4)nc3s2)c(F)cc1-c1cn[nH]c1 [Compound 177, 2-{5-[2,5-difluoro-4-(1H-pyrazol-4-yl)phenyl][1,3]thiazolo[5,4-d][1,3]thiazol-2-yl}-2,7-diazaspiro[3.5]nonane] | 1000 to 3000
21 | CN1CCC(N(C)c2nc3sc(-c4ncc(-c5cn[nH]c5)cc4O)nc3s2)CC1 [Compound 217, 2-{5-[methyl(1-methylpiperidin-4-yl)amino][1,3]thiazolo[5,4-d][1,3]thiazol-2-yl}-5-(1H-pyrazol-4-yl)pyridin-3-ol] | ≤ 100
22 | CN(c1nc2sc(-c3ccc(-c4cn[nH]c4)cc3O)nc2s1)[C@@H]1CCNC1 [Compound 55, 2-(5-{methyl[(3R)-pyrrolidin-3-yl]amino}[1,3]thiazolo[5,4-d][1,3]thiazol-2-yl)-5-(1H-pyrazol-4-yl)phenol] | ≤ 100
23 | C[C@H]1C[C@H](N(C)c2nc3sc(-c4cnc(-n5ccnc5)cn4)nc3s2)CCN1 [Compound 66, 5-[5-(1H-imidazol-1-yl)pyrazin-2-yl]-N-methyl-N-[(2S,4R)-2-methylpiperidin-4-yl][1,3]thiazolo[5,4-d][1,3]thiazol-2-amine] | ≤ 100
24 | CN(c1nc2sc(-c3ccc(-c4cn[nH]c4F)cc3O)nc2s1)C1CC(C)(C)NC(C)(C)C1 [Compound 43, 5-(5-fluoro-1H-pyrazol-4-yl)-2-{5-[methyl(2,2,6,6-tetramethylpiperidin-4-yl)amino][1,3]thiazolo[5,4-d][1,3]thiazol-2-yl}phenol] | ≤ 100
25 | CN(c1nc2sc(-n3ccc(-c4cn[nH]c4)cc3=O)nc2s1)[C@@H]1CCCNC1 [Compound 155, 1-(5-{methyl[(3R)-piperidin-3-yl]amino}[1,3]thiazolo[5,4-d][1,3]thiazol-2-yl)-4-(1H-pyrazol-4-yl)pyridin-2(1H)-one] | 100 to 500
26 | COc1cc(-c2cnc(-c3nc4sc(N(C)[C@H]5C[C@]6(C)CC[C@](C)(C5)N6)nc4s3)cn2)ccn1 [Compound 69, N-[(1R,3s,5S)-1,5-dimethyl-8-azabicyclo[3.2.1]octan-3-yl]-5-[5-(2-methoxypyridin-4-yl)pyrazin-2-yl]-N-methyl[1,3]thiazolo[5,4-d][1,3]thiazol-2-amine] | 100 to 500
27 | CC1CC(N(C)c2nc3sc(-c4ccc(-c5cn[nH]c5)nc4)nc3s2)CCN1C (stereo not shown) [Compound 127, N-(1,2-dimethylpiperidin-4-yl)-N-methyl-5-[6-(1H-pyrazol-4-yl)pyridin-3-yl][1,3]thiazolo[5,4-d][1,3]thiazol-2-amine] | 1000 to 3000
28 | CCN1CCC(N(C)c2nc3sc(-c4ncc(-c5cn[nH]c5)c5cc[nH]c45)nc3s2)CC1 [Compound 122, N-(1-ethylpiperidin-4-yl)-N-methyl-5-[4-(1H-pyrazol-4-yl)-1H-pyrrolo[2,3-c]pyridin-7-yl][1,3]thiazolo[5,4-d][1,3]thiazol-2-amine] | ≤ 100
29 | Cn1ccc(-c2ccc(-c3nc4sc(OC5CC(C)(C)NC(C)(C)C5)nc4s3)c(O)c2)cc1=O [Compound 38, 4-(3-hydroxy-4-{5-[(2,2,6,6-tetramethylpiperidin-4-yl)oxy][1,3]thiazolo[5,4-d][1,3]thiazol-2-yl}phenyl)-1-methylpyridin-2(1H)-one] | 100 to 500
30 | CN(c1nc2sc(-c3cnc(-n4cccn4)cn3)nc2s1)C1CC(C)(C)NC(C)(C)C1 [Compound 105, N-methyl-5-[5-(1H-pyrazol-1-yl)pyrazin-2-yl]-N-(2,2,6,6-tetramethylpiperidin-4-yl)[1,3]thiazolo[5,4-d][1,3]thiazol-2-amine] | 500 to 1000
31 | CN(c1nc2sc(-c3ncc(-c4cn[nH]c4)c4[nH]cnc34)nc2s1)C1CC(C)(C)NC(C)(C)C1 [Compound 136, N-methyl-5-[7-(1H-pyrazol-4-yl)-1H-imidazo[4,5-c]pyridin-4-yl]-N-(2,2,6,6-tetramethylpiperidin-4-yl)[1,3]thiazolo[5,4-d][1,3]thiazol-2-amine] | ≤ 100
